Laboratory results: ChEMBL document CHEMBL1201862, “PubChem BioAssay data set” (2004)
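Five compound concentrations were applied to cells in 96-well plates for 48 hours; endpoints were derived by simple linear interpolation of the resulting dose-response curve. At the GI50, growth is halved.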 The source made the active and inactive calls. Rule as the data show it: active = GI50 up to about 1.1 µM and inactive = higher. Non-standard residues stand in square brackets, D forms with d. Residues, ends and D or L forms follow the SMILES beside them. *: point of attachment. NMeF = CN[CH](Cc1ccccc1)C(=O)O; NMeV = CN[CH](C(=O)O)C(C)C; Boc = CC(C)(C)OC(=O)*

Key:
Assay in all cases: NCI tumour cell line growth inhibition, 48 h
786-0 = test system: 786-0
SNB-75 = test system: SNB-75
SW-620 = test system: SW-620
NCI-H226 = test system: NCI-H226
CCRF-CEM = test system: CCRF-CEM
HOP-62 = test system: HOP-62
U-251 = test system: U-251
SF-539 = test system: SF-539
OVCAR-4 = test system: OVCAR-4
ACHN = test system: ACHN
HOP-92 = test system: HOP-92
NCI-H522 = test system: NCI-H522
NCI-H23 = test system: NCI-H23
COLO 205 = test system: COLO 205
UACC-62 = test system: UACC-62
OVCAR-3 = test system: OVCAR-3
SK-MEL-5 = test system: SK-MEL-5

Measured: GI50

O=C(O)c1ccc(NC(=O)C2C(=O)C(=O)N(c3ccc(C(=O)O)cc3)C2=O)cc1 (stereo not drawn)
inactive: 786-0 > 100 µM | SNB-75 > 100 µM | SW-620 > 100 µM | NCI-H226 > 100 µM | CCRF-CEM > 100 µM | HOP-62 > 100 µM | U-251 > 100 µM | SF-539 > 100 µM | OVCAR-4 > 100 µM | ACHN > 100 µM | HOP-92 > 100 µM | NCI-H522 > 100 µM | NCI-H23 > 100 µM | COLO 205 > 100 µM | UACC-62 > 100 µM | OVCAR-3 > 100 µM

COc1ccc(C2C(Cl)C(=O)N2NC(=O)c2ccccc2O)cc1OC (stereo not drawn)
inactive: 786-0 > 100 µM | NCI-H226 > 100 µM | CCRF-CEM 31.6 µM | U-251 92.3 µM | SF-539 > 100 µM | SK-MEL-5 60 µM | OVCAR-4 75.9 µM | ACHN > 100 µM | NCI-H522 32.2 µM | NCI-H23 > 100 µM | UACC-62 > 100 µM | OVCAR-3 75.9 µM

CC1=NN(C(=O)c2ccc(Cl)cc2)C(=O)/C1=C/c1ccccc1O
inactive: 786-0 > 100 µM | SW-620 > 100 µM | CCRF-CEM > 100 µM | HOP-62 > 100 µM | U-251 > 100 µM | SF-539 > 100 µM | SK-MEL-5 > 100 µM | OVCAR-4 > 100 µM | ACHN > 100 µM | HOP-92 > 100 µM | NCI-H522 > 100 µM | NCI-H23 > 100 µM | COLO 205 > 100 µM | UACC-62 > 100 µM | OVCAR-3 > 100 µM

[N-]=[N+]=Nc1c(Br)c(=O)[nH]c(=O)n1COCCO
inactive: 786-0 > 100 µM | SNB-75 86.1 µM | SW-620 > 100 µM | CCRF-CEM 63.4 µM | HOP-62 > 100 µM | U-251 > 100 µM | SF-539 > 100 µM | SK-MEL-5 > 100 µM | OVCAR-4 > 100 µM | ACHN > 100 µM | HOP-92 > 100 µM | NCI-H522 32.2 µM | NCI-H23 > 100 µM | COLO 205 > 100 µM | UACC-62 > 100 µM | OVCAR-3 > 100 µM

O=C1c2ccccc2C(=O)c2[nH]c(Cc3ccccc3F)nc21
inactive: 786-0 38.5 µM | SNB-75 50.7 µM | SW-620 37.9 µM | NCI-H226 48.2 µM | CCRF-CEM > 100 µM | HOP-62 86.7 µM | U-251 7.96 µM | SF-539 31.2 µM | OVCAR-4 28.1 µM | ACHN 53.5 µM | HOP-92 68.1 µM | NCI-H522 21.3 µM | NCI-H23 27.7 µM | COLO 205 33.7 µM | UACC-62 46.1 µM | OVCAR-3 14.5 µM

CN1C(=O)CNS1(=O)=O
inactive: 786-0 > 100 µM | SNB-75 38.1 µM | SW-620 > 100 µM | NCI-H226 > 100 µM | CCRF-CEM > 100 µM | HOP-62 > 100 µM | U-251 > 100 µM | SF-539 > 100 µM | SK-MEL-5 > 100 µM | ACHN > 100 µM | HOP-92 > 100 µM | NCI-H23 > 100 µM | UACC-62 > 100 µM | OVCAR-3 > 100 µM

O=C(CC(=O)N1N=C(c2ccccc2)C(/N=N/c2ccc(Cl)cc2)C1=O)Nc1ccccc1Cl (stereo not drawn)
inactive: 786-0 12.2 µM | SNB-75 16.4 µM | SW-620 40.7 µM | NCI-H226 19 µM | HOP-62 20.1 µM | U-251 24.5 µM | SF-539 24.4 µM | SK-MEL-5 18.1 µM | OVCAR-4 16 µM | ACHN 15.6 µM | NCI-H522 30.3 µM | NCI-H23 29.4 µM | COLO 205 > 100 µM | UACC-62 21.6 µM | OVCAR-3 24.3 µM

CC(C)C(NC(=O)OC(C)(C)C)C(=O)N(C)C(Cc1ccccc1)C(=O)N(C)C(C(=O)N(C)C(C(=O)O)C(C)C)C(C)C (stereo not drawn) (Boc-V[NMeF][NMeV][NMeV]-OH; configuration not given here)
inactive: 786-0 > 100 µM | SW-620 > 100 µM | NCI-H226 > 100 µM | CCRF-CEM > 100 µM | HOP-62 > 100 µM | U-251 > 100 µM | SF-539 > 100 µM | SK-MEL-5 > 100 µM | ACHN > 100 µM | NCI-H522 > 100 µM | NCI-H23 > 100 µM | COLO 205 > 100 µM | UACC-62 > 100 µM | OVCAR-3 > 100 µM

O=C(O)C(CS)NCc1c2ccccc2nc2ccccc12 (stereo not drawn)
inactive: 786-0 55.2 µM | SNB-75 65.8 µM | SW-620 37.4 µM | NCI-H226 > 100 µM | CCRF-CEM 19 µM | U-251 92 µM | SF-539 33.9 µM | OVCAR-4 12.9 µM | ACHN 42.3 µM | HOP-92 25.9 µM | NCI-H522 25 µM | NCI-H23 37.8 µM | COLO 205 > 100 µM | OVCAR-3 38.9 µM

O=C(CC(=O)C1CCOC1=O)C(=O)Nc1cccc(Cl)c1 (stereo not drawn)
inactive: 786-0 > 100 µM | SNB-75 > 100 µM | SW-620 > 100 µM | NCI-H226 > 100 µM | HOP-62 > 100 µM | U-251 > 100 µM | SF-539 > 100 µM | SK-MEL-5 > 100 µM | OVCAR-4 > 100 µM | ACHN > 100 µM | HOP-92 > 100 µM | NCI-H522 > 100 µM | NCI-H23 > 100 µM | COLO 205 > 100 µM | UACC-62 > 100 µM | OVCAR-3 > 100 µM

C=CCO/N=C(\OC(=O)c1ccc([N+](=O)[O-])cc1)c1ccccc1
inactive: 786-0 > 100 µM | SNB-75 > 100 µM | SW-620 > 100 µM | NCI-H226 > 100 µM | CCRF-CEM > 100 µM | HOP-62 > 100 µM | U-251 > 100 µM | SF-539 > 100 µM | SK-MEL-5 > 100 µM | OVCAR-4 > 100 µM | ACHN > 100 µM | HOP-92 > 100 µM | NCI-H23 > 100 µM | COLO 205 > 100 µM | UACC-62 > 100 µM | OVCAR-3 > 100 µM

CCOC(=O)c1ccc(N2C(=O)Cc3ccccc3C2=O)cc1
inactive: 786-0 > 100 µM | SNB-75 > 100 µM | SW-620 > 100 µM | NCI-H226 > 100 µM | U-251 > 100 µM | SF-539 > 100 µM | SK-MEL-5 > 100 µM | ACHN > 100 µM | NCI-H23 > 100 µM | COLO 205 > 10 µM | UACC-62 > 100 µM | OVCAR-3 > 100 µM

COc1ccc2nc3cc(Cl)ccc3c(Sc3ccc(NC(C)=O)cc3)c2c1
inactive: 786-0 8.15 µM | SNB-75 > 24 µM | SW-620 14.2 µM | CCRF-CEM 9.18 µM | HOP-62 > 41.7 µM | SF-539 12.3 µM | SK-MEL-5 > 29.3 µM | OVCAR-4 > 24.4 µM | ACHN 4.86 µM | NCI-H522 2.79 µM | NCI-H23 13.8 µM | COLO 205 14.8 µM | UACC-62 15.3 µM

CN(C)c1ccc(/C=C/C=C\c2cc(/C=C/C=C/c3ccc(N(C)C)cc3)[s+]c3ccccc23)cc1.[O-][Cl+3]([O-])([O-])[O-]
inactive: 786-0 90.6 µM | SNB-75 > 100 µM | SW-620 63.4 µM | NCI-H226 > 100 µM | HOP-62 > 100 µM | U-251 10 µM | SF-539 > 100 µM | SK-MEL-5 43.8 µM | OVCAR-4 10 µM | NCI-H522 10 µM | NCI-H23 10 µM | COLO 205 29.3 µM | UACC-62 28.2 µM | OVCAR-3 31.8 µM

NC(CCC(=O)NC(CSSCCCCS(=O)O)C(=O)NCC(=O)O)C(=O)O (stereo not drawn)
inactive: 786-0 > 100 µM | SNB-75 23.4 µM | SW-620 > 100 µM | CCRF-CEM > 100 µM | HOP-62 > 100 µM | U-251 > 100 µM | SF-539 > 100 µM | SK-MEL-5 > 100 µM | OVCAR-4 > 100 µM | ACHN > 100 µM | NCI-H522 > 100 µM | NCI-H23 > 100 µM | COLO 205 > 100 µM | UACC-62 > 100 µM | OVCAR-3 > 100 µM

CCCCCCCCC/C=C1\CCC(CN(C)C)C1=O (stereo not drawn)
active: 786-0 0.281 µM | CCRF-CEM 0.721 µM
inactive: SNB-75 2.37 µM | SW-620 1.58 µM | NCI-H226 9.51 µM | HOP-62 2.08 µM | U-251 1.66 µM | SF-539 1.79 µM | SK-MEL-5 2.05 µM | ACHN 2.2 µM | HOP-92 2.13 µM | NCI-H522 1.95 µM | NCI-H23 2.44 µM | COLO 205 2.29 µM | UACC-62 2.48 µM

[N-]=[N+]=Nc1cc(=O)oc2ccccc12
inactive: 786-0 > 100 µM | SNB-75 > 100 µM | SW-620 > 100 µM | NCI-H226 > 100 µM | CCRF-CEM > 100 µM | HOP-62 > 100 µM | U-251 > 100 µM | SF-539 > 100 µM | SK-MEL-5 > 100 µM | OVCAR-4 > 100 µM | ACHN > 100 µM | NCI-H522 > 100 µM | NCI-H23 > 100 µM | COLO 205 > 100 µM | UACC-62 > 100 µM

COC(=O)C1CCc2c(OC)ccc(OC)c2C1=O (stereo not drawn)
inactive: 786-0 > 100 µM | SW-620 > 100 µM | CCRF-CEM > 100 µM | HOP-62 > 100 µM | U-251 > 100 µM | SF-539 > 100 µM | SK-MEL-5 > 100 µM | OVCAR-4 > 100 µM | ACHN > 100 µM | HOP-92 > 100 µM | NCI-H522 > 100 µM | NCI-H23 > 100 µM | COLO 205 > 100 µM | UACC-62 > 100 µM | OVCAR-3 > 100 µM
